Experimental data published in ChEMBL document CHEMBL3132769, “Fragment growing to retain or alter the selectivity of anchored kinase hinge-binding fragments” (Medchemcomm, 2014).

Columns and labels:
[1] = target: T1, cGMP-dependent protein kinase 1 (Homo sapiens) (UniProt Q13976); experiment: Inhibition of human full length PKG-1beta expressed in baculovirus assessed as substrate phosphorylation using fluorescence-labelled peptides as substrate at 0.2 uM after 90 mins by microfluidic peptide phosphorylation assay
T1 sequence (whole entry): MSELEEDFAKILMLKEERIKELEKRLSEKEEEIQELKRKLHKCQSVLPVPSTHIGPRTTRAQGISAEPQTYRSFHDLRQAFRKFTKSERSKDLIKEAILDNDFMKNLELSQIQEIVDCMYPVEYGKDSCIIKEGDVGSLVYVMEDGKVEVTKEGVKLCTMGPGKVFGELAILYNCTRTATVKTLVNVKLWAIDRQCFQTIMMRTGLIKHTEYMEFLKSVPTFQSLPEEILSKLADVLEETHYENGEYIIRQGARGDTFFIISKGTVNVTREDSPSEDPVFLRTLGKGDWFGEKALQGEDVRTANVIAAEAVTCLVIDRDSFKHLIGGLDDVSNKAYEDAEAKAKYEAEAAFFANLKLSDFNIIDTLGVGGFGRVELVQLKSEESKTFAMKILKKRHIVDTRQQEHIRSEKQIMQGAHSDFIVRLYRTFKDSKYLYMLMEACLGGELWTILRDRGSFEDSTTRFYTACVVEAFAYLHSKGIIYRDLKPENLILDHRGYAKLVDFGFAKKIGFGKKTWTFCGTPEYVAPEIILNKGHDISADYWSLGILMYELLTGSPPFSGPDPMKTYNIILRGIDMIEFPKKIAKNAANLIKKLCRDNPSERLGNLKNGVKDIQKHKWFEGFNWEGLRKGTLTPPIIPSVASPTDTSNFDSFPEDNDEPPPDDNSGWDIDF

[2] = target: T2, Serine/threonine-protein kinase Sgk3 (Homo sapiens) (UniProt Q96BR1); experiment: Inhibition of human full length SGK3 expressed in baculovirus assessed as substrate phosphorylation using fluorescence-labelled peptides as substrate at 9 uM after 90 mins by microfluidic peptide phosphorylation assay
T2 sequence (whole entry): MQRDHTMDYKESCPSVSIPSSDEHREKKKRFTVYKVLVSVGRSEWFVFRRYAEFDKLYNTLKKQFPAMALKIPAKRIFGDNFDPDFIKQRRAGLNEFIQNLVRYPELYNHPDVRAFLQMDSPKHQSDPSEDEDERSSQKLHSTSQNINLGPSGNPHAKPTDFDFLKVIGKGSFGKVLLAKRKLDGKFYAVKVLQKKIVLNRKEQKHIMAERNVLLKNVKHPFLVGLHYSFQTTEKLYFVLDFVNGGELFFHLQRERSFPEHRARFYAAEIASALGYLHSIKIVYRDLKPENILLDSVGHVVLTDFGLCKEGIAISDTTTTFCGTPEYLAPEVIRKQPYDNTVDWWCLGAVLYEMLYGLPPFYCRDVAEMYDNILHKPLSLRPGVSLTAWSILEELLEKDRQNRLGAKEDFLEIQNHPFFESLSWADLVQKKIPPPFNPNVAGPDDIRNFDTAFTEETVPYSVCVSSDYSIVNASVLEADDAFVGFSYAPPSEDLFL

[3] = target: T3, Mitogen-activated protein kinase 12 (Homo sapiens) (UniProt P53778); experiment: Inhibition of human full length p38 gamma expressed in Escherichia coli cell assessed as substrate phosphorylation using fluorescence-labelled peptides as substrate at 70 uM after 90 mins by microfluidic peptide phosphorylation assay
T3 sequence (whole entry): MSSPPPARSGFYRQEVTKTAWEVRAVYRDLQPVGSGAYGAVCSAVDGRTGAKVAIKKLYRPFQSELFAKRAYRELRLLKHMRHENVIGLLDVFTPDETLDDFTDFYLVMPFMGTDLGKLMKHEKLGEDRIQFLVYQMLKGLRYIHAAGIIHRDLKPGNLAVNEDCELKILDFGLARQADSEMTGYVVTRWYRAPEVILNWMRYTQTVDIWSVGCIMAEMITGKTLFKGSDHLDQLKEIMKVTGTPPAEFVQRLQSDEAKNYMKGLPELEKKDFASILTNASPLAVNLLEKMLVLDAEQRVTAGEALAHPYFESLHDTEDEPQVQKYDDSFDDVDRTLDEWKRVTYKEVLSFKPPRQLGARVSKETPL

[4] = target: T4, Aurora kinase C (Homo sapiens) (UniProt Q9UQB9); experiment: Inhibition of human full length AurC expressed in baculovirus assessed as substrate phosphorylation using fluorescence-labelled peptides as substrate at 95 uM after 90 mins by microfluidic peptide phosphorylation assay
T4 sequence (whole entry): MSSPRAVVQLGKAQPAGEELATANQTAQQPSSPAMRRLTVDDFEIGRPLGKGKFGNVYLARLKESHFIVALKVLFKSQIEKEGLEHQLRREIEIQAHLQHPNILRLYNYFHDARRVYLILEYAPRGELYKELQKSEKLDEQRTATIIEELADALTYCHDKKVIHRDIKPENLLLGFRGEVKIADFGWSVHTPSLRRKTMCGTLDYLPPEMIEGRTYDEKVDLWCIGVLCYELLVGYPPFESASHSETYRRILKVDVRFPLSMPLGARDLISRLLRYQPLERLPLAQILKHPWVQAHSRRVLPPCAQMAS

[5] = target: MAP kinase p38 (Homo sapiens) (UniProt O15264+Q15759+Q16539+P53778); experiment: Inhibition of human full length p38 beta2 expressed in Escherichia coli cell assessed as substrate phosphorylation using fluorescence-labelled peptides as substrate at 8 uM after 90 mins by microfluidic peptide phosphorylation assay

## Clc1ccc(C2(c3ccc(-c4ncnc5[nH]cnc45)cc3)CCNCC2)cc1
[1]
  inhibition: 88.5%

## NCC1CN(c2ncnc3[nH]c4cnccc4c23)CCO1 (stereo not given)
[2]
  inhibition: 44%

## CNCc1ccc(-c2ncnc3[nH]cnc23)cc1
[3]
  inhibition: 15%

## NCCc1ccc(-c2ncnc3[nH]cnc23)cc1
[4]
  inhibition: 87.5%

## NCC1CCN(c2ncnc3[nH]ccc23)CC1
[5]
  inhibition: 12.5%
